Laboratory results published in patent US10183015B2, “Heterocyclic compounds and methods of use” (Medivation Technologies LLC, priority 2015, dated 2019).
“And” between values parts separate entries of the source, which are not always exact repeats. Identical values can stand only once.

Tests used:
[1] = tested on: diet-induced NASH obese insulin resistant mice; assay: Diet-induced NASH (DIN) obese insulin-resistant mouse model: plasma ALT and AST; assay type: in vivo; conditions: for ALAT area under the curve / ASAT area under the curve / ALAT, days of treatment 0 / ASAT, days of treatment 0 / ALAT, days of treatment 14 / ASAT, days of treatment 14 / ALAT, days of treatment 28 / ASAT, days of treatment 28 / ALAT, days of treatment 42 / ASAT, days of treatment 42 / ALAT, days of treatment 56 / ASAT, days of treatment 56 / ALAT, days of treatment 70 / ASAT, days of treatment 70: plasma; for ALAT area under the curve / ASAT area under the curve: 70-day treatment; for ALAT area under the curve / ASAT area under the curve / ALAT, days of treatment 0 / ASAT, days of treatment 0: 20 mg/kg; for ALAT, days of treatment 0 / ASAT, days of treatment 0: day 0 (baseline); for ALAT, days of treatment 14 / ASAT, days of treatment 14: day 14, 20 mg/kg; for ALAT, days of treatment 28 / ASAT, days of treatment 28: day 28, 20 mg/kg; for ALAT, days of treatment 42 / ASAT, days of treatment 42: day 42, 20 mg/kg; for ALAT, days of treatment 56 / ASAT, days of treatment 56: day 56, 20 mg/kg; for ALAT, days of treatment 70 / ASAT, days of treatment 70: day 70, 20 mg/kg
Description: (§1) Male C57Bl/6J mice (8 weeks old) were housed in enriched ventilated cages (31×12.5×12.7 cm) throughout the experimental phase. Animals' cages litters were changed at least once a week. Animal were housed 5 per cage on inverted 12-hour light cycle (at 09:00 am lights off), 22±2° C. and 55±10% relative humidity. The acclimation period was 20 days. During the acclimation period, all mice were fed a standard diet (RM1 (E) 801492, SDS) and tap water ad libitum. After the acclimation period, mice were fed with the DIN diet (60% fat, cholesterol enriched) and fructose-enriched tap water ad libitum until the end of the experiment.
(§2) At 6 weeks of diet, mice were 4-hour fasted (09:00 am to 1:00 pm) and blood (150 μl/EDTA) was collected at 01:00 pm by retro-orbital bleeding under isoflurane anesthesia. Mice were then allocated in 2 homogenous groups (n=12/group) according to their plasma levels of ALT (average levels: 685U/L), AST (average levels: 627U/L) and HOMA-IR index (average value: 4.7), into 2 homogenous groups (see values at day 0 in Tables 15A and 15B ALT/AST and Tables 16A and 16B for HOMA-IR). Mice were then treated once daily by oral gavage with vehicle (Group 1) or Compound #37 at 20 mg/kg (Group 2) for 70 days.
To investigate whether Compound #37 improves pre-existing steatosis/NASH pathology, a study was conducted using a 16-week diet-induced NASH mouse model. In this model, mice develop steatosis that progresses with inflammation and fibrosis that mimic many of the observed pathologies in human nonalcoholic fatty liver disease (NAFLD) and NASH (Hebbard & George, 2010). For 6 weeks, mice were fed a high-fat, high-cholesterol diet and provided drinking water containing fructose to induce liver pathology (Charlton et al, 2011). After 6 weeks, the mice were divided into 2 groups with similar mean aspartate aminotransferase (AST) and alanine aminotransferase (ALT) values (n=12 mice), although it should be noted that AST and ALT concentrations within both groups were higher and with greater variability than anticipated (e.g., mean ALT 677 U/L [SD, 401 U/L] in the vehicle control group and 693 U/L [SD, 365 U/L] in the Compound #37 group). After the animals were divided into 2 groups, the diet was continued for 10 additional weeks during which time 1 group received vehicle and the other was treated with 20 mg/kg/day Compound #37.

[2] = tested on: SCAP; assay: DIN mouse model: hepatic SCAP gene expression; assay type: in vivo; set-up: key to 2^DDct: expression relative to vehicle group, normalized to 18S; conditions: 20 mg/kg group; for 18S: Gene Expression: SCAP table, 18S reference; for 2^DDct / DDct / Dct / SCAP: Gene Expression: SCAP
Description: Gene expression analysis. Hepatic expression levels of genes involved in lipid metabolism (FAS, SREBP1, ACC1, SCD1), cholesterol metabolism (HMG-CoAR, LDLR), SREBP proteolysis (SCAP, INSIG1), ER stress (PERK), oxidative stress (NRF2), inflammation (MCP-1), and fibrosis (collagen 1α1) were quantified by RTqPCR. Expression level was normalized to 18S gene expression and relative expression to vehicle group was calculated with the […] method.
as §1, §2
Hepatic expression levels of genes involved in lipid (FAS, SREBP1, ACC1, SCD1), cholesterol metabolism (HMG-CoAR, LDLR), in SREBP proteolysis (SCAP, INSIG1), in ER stress (PERK), oxidative stress (NRF2), and inflammation (MCP-1) were not changed. However, expression of collagen 1α1, involved in liver fibrosis, was reduced by 66% in mice treated with Compound #37 (p<0.05 vs. vehicle).

[3] = tested on: ob/ob mice; assay: ob/ob mice: liver Oil Red O staining; assay type: in vivo, mouse; conditions: 8 weeks
Description: Groups of mice were either untreated (group 1) or treated for 8 weeks with vehicle (group 2), or with Compound #37 at 5 mg/kg (group 3), 10 mg/kg (group 4), or 20 mg/kg (group 5). Treatment was daily by oral gavage in vehicle (20% HPβCD). Values are presented as mean±standard error of the mean (sem). A t test was performed to compare the untreated group and the vehicle group. Then Compound #37-treated groups were compared to the vehicle-treated group with a 1-way ANOVA+Dunnett's post-test. […] For each test, a p<0.05 was considered significant. Of note, animal #39, group 1 was excluded from the statistical analysis, due to low values for all parameters measured. Some other values were considered as out-liners and excluded from the statistical analysis when the value was far below the mean minus 2 SD. Excluded values are marked with an asterisk in Tables 21-23.

CC(C)Cc1cc(-c2nc(-c3ccc(NS(=O)(=O)C(F)(F)F)cc3Cl)cs2)ccn1 [Compound 37, N-(3-chloro-4-(2-(2-isobutylpyridin-4-yl)thiazol-4-yl)phenyl)-1,1,1-trifluoromethanesulfonamide]
hepatotoxicity (transaminase concentrations) ([1]; 20 mg/kg/day, 10 weeks): No evidence of hepatotoxicity
ALAT area under the curve ([1]; group mean, n 11): 12252 U/L · day
ASAT area under the curve ([1]; group mean, n 11): 10763 U/L · day
ALAT area under the curve ([1]; individual animals): 18578 U/L · day and 17206 U/L · day and 11865 U/L · day and 9163 U/L · day and 5418 U/L · day and 9331 U/L · day and 17759 U/L · day and 11949 U/L · day and 16954 U/L · day and 8862 U/L · day and 7686 U/L · day
ASAT area under the curve ([1]; individual animals): 18662 U/L · day and 15001 U/L · day and 8456 U/L · day and 8141 U/L · day and 5607 U/L · day and 6573 U/L · day and 11550 U/L · day and 10388 U/L · day and 13167 U/L · day and 11690 U/L · day and 9163 U/L · day
ALAT, days of treatment 0 ([1]; group mean, n 12): 693 U/L
ASAT, days of treatment 0 ([1]; group mean, n 12): 615 U/L
ALAT, days of treatment 0 ([1]; individual animals): 1520 U/L and 698 U/L and 955 U/L and 551 U/L and 226 U/L and 365 U/L and 625 U/L and 563 U/L and 830 U/L and 662 U/L and 260 U/L and 1065 U/L
ASAT, days of treatment 0 ([1]; individual animals): 1440 U/L and 875 U/L and 584 U/L and 435 U/L and 217 U/L and 269 U/L and 464 U/L and 500 U/L and 725 U/L and 730 U/L and 283 U/L and 860 U/L
ALAT, days of treatment 14 ([1]; group mean, n 12): 255 U/L
ASAT, days of treatment 14 ([1]; group mean, n 12): 249 U/L
ALAT, days of treatment 14 ([1]; individual animals): 250 U/L and 252 U/L (2×) and 218 U/L and 200 U/L and 92 U/L and 198 U/L and 256 U/L and 410 U/L and 690 U/L and 134 U/L and 106 U/L
ASAT, days of treatment 14 ([1]; individual animals): 296 U/L and 268 U/L and 206 U/L and 228 U/L and 124 U/L and 150 U/L and 190 U/L and 288 U/L and 440 U/L and 248 U/L and 428 U/L and 126 U/L
ALAT, days of treatment 28 ([1]; group mean, n 12): 146 U/L
ASAT, days of treatment 28 ([1]; group mean, n 12): 146 U/L
ALAT, days of treatment 28 ([1]; individual animals): 176 U/L and 118 U/L and 96 U/L and 68 U/L and 58 U/L and 316 U/L and 226 U/L and 154 U/L and 160 U/L and 208 U/L and 38 U/L and 136 U/L
ASAT, days of treatment 28 ([1]; individual animals): 238 U/L and 98 U/L and 84 U/L and 76 U/L and 80 U/L and 168 U/L and 140 U/L and 102 U/L and 222 U/L and 288 U/L and 68 U/L and 190 U/L
ALAT, days of treatment 42 ([1]; group mean, n 12): 143 U/L
ASAT, days of treatment 42 ([1]; group mean, n 12): 136 U/L
ALAT, days of treatment 42 ([1]; individual animals): 68 U/L and 280 U/L and 52 U/L and 50 U/L (2×) and 136 U/L and 58 U/L and 168 U/L and 92 U/L and 66 U/L and 370 U/L and 322 U/L
ASAT, days of treatment 42 ([1]; individual animals): 88 U/L and 132 U/L and 80 U/L and 110 U/L and 140 U/L and 96 U/L and 200 U/L and 106 U/L and 130 U/L and 76 U/L and 174 U/L and 296 U/L
ALAT, days of treatment 56 ([1]; group mean, n 11): 136 U/L
ASAT, days of treatment 56 ([1]; group mean, n 11): 126 U/L
ALAT, days of treatment 56 ([1]; individual animals): 276 U/L and 80 U/L and 48 U/L and 68 U/L and 52 U/L and 54 U/L and 112 U/L and 130 U/L and 534 U/L and 70 U/L and 74 U/L
ASAT, days of treatment 56 ([1]; individual animals): 346 U/L and 122 U/L and 92 U/L and 108 U/L and 60 U/L and 96 U/L and 132 U/L and 112 U/L and 182 U/L and 130 U/L and 164 U/L
ALAT, days of treatment 70 ([1]; group mean, n 11): 413 U/L
ASAT, days of treatment 70 ([1]; group mean, n 11): 281 U/L
ALAT, days of treatment 70 ([1]; individual animals): 364 U/L and 1030 U/L and 326 U/L and 372 U/L and 210 U/L and 342 U/L and 1150 U/L and 358 U/L and 142 U/L (2×) and 104 U/L
ASAT, days of treatment 70 ([1]; individual animals): 258 U/L and 648 U/L and 162 U/L and 206 U/L and 180 U/L and 160 U/L and 524 U/L and 376 U/L and 182 U/L and 198 U/L and 192 U/L
18S ([2]; individual animal, 20 mg/kg): 12.55 (2×) and 12.84 and 12.43 and 12.35 (2×) and 12.59 and 11.73 and 12.51 and 11.5 and 11.55
18S ([2]; mean, n 11): 12.3
2^DDct ([2]; individual animal, 20 mg/kg): 1.37 and 1.72 (2×) and 0.65 and 0.71 and 0.91 and 1.46 and 1.39 and 0.64 and 0.59 and 1.60
DDct ([2]; individual animal, 20 mg/kg): −0.45 and −0.78 (2×) and 0.63 and 0.49 and 0.13 and −0.54 and −0.47 and 0.65 and 0.77 and −0.68
Dct ([2]; individual animal, 20 mg/kg): 11.61 and 11.28 (2×) and 12.69 and 12.55 and 12.19 and 11.52 and 11.59 and 12.71 and 12.83 and 11.38
SCAP ([2]; individual animal, 20 mg/kg): 24.16 and 23.83 and 25.53 and 24.98 and 24.54 and 24.11 and 23.32 and 23.79 and 24.21 and 24.38 and 23.73
2^DDct ([2]; mean, n 11): 1.16
DDct ([2]; mean, n 11): −0.10
Dct ([2]; mean, n 11): 12.0
SCAP ([2]; mean, n 11): 24.2
liver oil-red-O quantification ([3]; 5 mg/kg daily oral gavage, group mean): 6.7%
liver oil-red-O quantification ([3]; 5 mg/kg daily oral gavage, individual animal values, 5 mg/kg): 0.67% and 2.91% and 8.82% and 9.22% and 4.41% and 6.15% and 8.06% and 8.93% and 8.85% and 9.33%
liver oil-red-O quantification ([3]; 10 mg/kg daily oral gavage, group mean): 13.23%
liver oil-red-O quantification ([3]; 10 mg/kg daily oral gavage, individual animal values, 10 mg/kg): 19.18% and 18.46% and 13.25% and 3.65% and 8.46% and 8.67% and 16.07% and 17.12% and 16.00% and 11.43%
liver oil-red-O quantification ([3]; 20 mg/kg daily oral gavage, group mean): 8.5%
liver oil-red-O quantification ([3]; 20 mg/kg daily oral gavage, individual animal values, 20 mg/kg): 13.45% and 0.42% and 15.53% and 9.89% and 4.95% and 8.17% and 4.74% and 7.06% and 15.71% and 5.38%
